One data set deals with Huh7.5 cells. Briefly: Cell viability, CellTiter-Glo luminescent assay. To be noted: deconvolution screen, singletons, 50 µM, uninfected Huh7.5. (In general: ATP-based viability assays read luminescence as a measure of living cells.)
In data set [1] the test system is ZIKV-R2A (strain FSS13025). Briefly: microbe, parasite or virus in culture. The format is cell-based. To be noted: Zika virus, Huh7.5, 48 h, read-out: ZIKV-R2A replication (fold DMSO) Mean.
Data set [2] has as its system DENV-R2A (Rluc-expressing DENV, serotype 2 strain 16681). Briefly: microbe, parasite or virus in culture. The data set is classed as cell-based, Dengue virus. To be noted: Dengue virus, Huh7.5, 48 h, read-out: DENV-R2A replication (fold DMSO) Mean, deconvolution screen, singletons, 50 µM, Huh7.5, 2 days postinfection.

SMILES strings stand for the structures.

With `O=C1CCCc2cc(O)ccc21` [MS-2425, Oc1ccc2C(=O)CCCc2c1], the “Cell viability (fold DMSO) Mean” value with Huh7.5 cells was 1.05 fold DMSO. Further, the activity at 50 µM in data set [1] came out at 92%; in data set [2], 98%.
On the same counts, the results for `N#CCOc1cccc2ccccc12` [MS-7107, N#CCOc1cccc2ccccc12] are 1.01 fold DMSO, 84% and 65%.
Consider `CC(N)c1cccnc1` (stereo not drawn) [PS-3055, CC(N)c1cccnc1], for which the “Cell viability (fold DMSO) Mean” value in the data set on Huh7.5 cells is on record as 0.98 fold DMSO. The activity at 50 µM in data set [1] is 111%; in data set [2], 100%.
On to `Cc1cc(O)cc(O)n1` [PS-3153, Cc1cc(O)cc(O)n1], for which, in the data set on Huh7.5 cells, the “Cell viability (fold DMSO) Mean” value stood at 0.97 fold DMSO. Also, the results for the activity at 50 µM in data set [1] and in data set [2] were 109% and 100%, respectively.
On the same counts, the results for `Oc1ccc2[nH]ccc2c1` [PS-3277, Oc1ccc2[nH]ccc2c1] are 1.23 fold DMSO, 74% and 52%.
On the same counts, the results for `Clc1ccc2nccnc2c1` [PS-3410, Clc1ccc2nccnc2c1] are 1.20 fold DMSO, 108% and 95%.
On to `CN1CCN(c2ccccc2CN)CC1` [PS-3674, CN1CCN(CC1)c2ccccc2CN], for which the “Cell viability (fold DMSO) Mean” value in the data set with Huh7.5 cells worked out at 0.94 fold DMSO. Further, the activity at 50 µM in data set [1] is 89%; in data set [2] it was 60%.
On the same counts, the results for `NC(=O)C1CCCNC1` (stereo not drawn) [PS-3699, NC(=O)C1CCCNC1] are 0.94 fold DMSO, 113% and 95%.
On the same counts, the results for `Oc1ccc2ncccc2c1` [PS-3719, Oc1ccc2ncccc2c1] are 1.19 fold DMSO, 107% and 93%.
On the same counts, the results for `Cc1ccnc2ccccc12` [PS-3771, Cc1ccnc2ccccc12] are 0.92 fold DMSO, 107% and 101%.
In the case of `Nc1ccc(Cl)cc1Br` [PS-3798, Nc1ccc(Cl)cc1Br], the “Cell viability (fold DMSO) Mean” value in the data set with Huh7.5 cells turned out to be 0.99 fold DMSO. Moreover, the activity at 50 µM in data set [1] was determined as 111%; in data set [2] it was 94%.
The like results for `COC(=O)c1cc(Br)no1` [PS-3994, COC(=O)c1onc(Br)c1] were, in that order, 1.07 fold DMSO, 114% and 98%.
Regarding `Nc1cccc(Cl)c1Cl` [PS-4077, Nc1cccc(Cl)c1Cl], the “Cell viability (fold DMSO) Mean” value in the data set with Huh7.5 cells came to 0.97 fold DMSO. The values for the activity at 50 µM in data set [1] and in data set [2] were 120% and 96%, respectively.
The like results for `Nc1ccccc1N1CCCCC1` [PS-4134, Nc1ccccc1N2CCCCC2] were, in that order, 1.12 fold DMSO, 107% and 111%.
On the same counts, the results for `Cc1onc(-c2ccccc2)c1CN` [PS-4242, Cc1onc(c1CN)c2ccccc2] are 0.92 fold DMSO, 103% and 91%.
On the same counts, the results for `N[C@@H]1c2ccccc2C[C@@H]1O` [PS-4272, N[C@H]1[C@@H](O)Cc2ccccc12] are 1.08 fold DMSO, 102% and 93%.
In the case of `OCC1CN(Cc2ccccc2)CCO1` (stereo not drawn) [PS-4274, OCC1CN(Cc2ccccc2)CCO1], the “Cell viability (fold DMSO) Mean” value in the data set with Huh7.5 cells is on record as 1.11 fold DMSO. Further, the values for the activity at 50 µM in data set [1] and in data set [2] were 116% and 100%, respectively.
As for `Cc1ccnn1-c1ccccc1` [PS-4283, Cc1ccnn1c2ccccc2], the “Cell viability (fold DMSO) Mean” value with Huh7.5 cells was 1.07 fold DMSO. For the same compound, the activity at 50 µM in data set [1] is 106%; in data set [2] it was 104%.
The like results for `COc1ccc(CO)c(OC)c1` [PS-4550, COc1ccc(CO)c(OC)c1] were, in that order, 0.92 fold DMSO, 34% and 31%.
The like results for `Cc1onc(-c2ccccc2)c1N` [PS-4715, Cc1onc(c1N)c2ccccc2] were, in that order, 1.05 fold DMSO, 113% and 88%.
The like results for `Clc1[nH]ccc2nccc1-2` [PS-4776, Clc1[nH]ccc2nccc12] were, in that order, 1.13 fold DMSO, 100% and 84%.
Regarding `O=C(C1CCNCC1)N1CCCC1` [PS-4906, O=C(C1CCNCC1)N2CCCC2], the “Cell viability (fold DMSO) Mean” value in the data set on Huh7.5 cells was 0.90 fold DMSO. In addition, the activity at 50 µM in data set [1] is 117%; in data set [2], 97%.
The like results for `Cc1cc(O)nc2ccc(O)cc12` [PS-4921, Cc1cc(O)nc2ccc(O)cc12] were, in that order, 1.00 fold DMSO, 83% and 92%.
For `CN(C)C(=O)c1ccccc1Br` [PS-4942, CN(C)C(=O)c1ccccc1Br], the “Cell viability (fold DMSO) Mean” value with Huh7.5 cells is on record as 1.07 fold DMSO. For the same compound, the activity at 50 µM in data set [1] amounted to 112%; in data set [2], 107%.
On the same counts, the results for `Nc1ccc(Cl)nn1` [PS-5236, Nc1ccc(Cl)nn1] are 1.18 fold DMSO, 108% and 108%.
Consider `Nc1cccc(Cl)c1` [PS-5280, Nc1cccc(Cl)c1], for which, in the data set on Huh7.5 cells, the “Cell viability (fold DMSO) Mean” value is given as 0.98 fold DMSO. Moreover, the activity at 50 µM in data set [1] was found to be 116%; in data set [2], 111%.
On to `N[C@H]1CC[C@H](O)CC1` [PS-5466, N[C@@H]1CC[C@@H](O)CC1], for which the “Cell viability (fold DMSO) Mean” value in the data set with Huh7.5 cells is given as 0.99 fold DMSO. Moreover, the activity at 50 µM in data set [1] was found to be 115%; in data set [2] it was 96%.
As to `Cc1ncccc1C(=O)O` [PS-5559, Cc1ncccc1C(=O)O], in the data set on Huh7.5 cells, the “Cell viability (fold DMSO) Mean” value stood at 0.92 fold DMSO. For the same compound, the activity at 50 µM stood at 104% in data set [1] and 102% in data set [2].
The like results for `O=C(O)Cc1ccc(O)cc1` [PS-5568, OC(=O)Cc1ccc(O)cc1] were, in that order, 0.98 fold DMSO, 103% and 97%.
Turning to `COc1ncc(Cl)cc1C#N` [PS-5618, COc1ncc(Cl)cc1C#N], the “Cell viability (fold DMSO) Mean” value with Huh7.5 cells worked out at 1.05 fold DMSO. In addition, the figures for the activity at 50 µM in data set [1] and in data set [2] were 97% and 108%, respectively.
On the same counts, the results for `Clc1cccn2nnnc12` [PS-5645, Clc1cccn2nnnc12] are 0.92 fold DMSO, 101% and 101%.
The like results for `Nc1cnc(Cl)cn1` [PS-5654, Nc1cnc(Cl)cn1] were, in that order, 1.12 fold DMSO, 117% and 97%.
On the same counts, the results for `Cc1ccc(Br)c(N)c1` [PS-5668, Cc1ccc(Br)c(N)c1] are 1.16 fold DMSO, 101% and 102%.
`O=C(O)c1ccc(N2CCCCC2)nn1` [PS-5724, OC(=O)c1ccc(nn1)N2CCCCC2]: in the data set with Huh7.5 cells, the “Cell viability (fold DMSO) Mean” value is 1.01 fold DMSO. Moreover, the figures for the activity at 50 µM in data set [1] and in data set [2] were 106% and 107%, respectively.

The values are drawn from PMC9933715 (Antimicrobial Agents and Chemotherapy, 2023).
